The values that follow are results of earlier work, collected in PMC2229313 (The Journal of General Physiology, 1996).

The data set deals with IFM/QQQ mutant Na channel. The note with it: cytoplasmic application; ref Eaholtz et al., 1994.

Regarding KIQMK, the “effect on kinetics of IFM/QQQ mutant Na currents” value is recorded as “fails to affect the kinetics of the inactivation-impaired Na channel”.
